In patent US11497751B2, “Modulators of Rho-associated protein kinase” (Redx Pharma PLC, priority 2018, dated 2022):
pIC50: −log10 of the molar value. Where “and” joins values, the source holds several entries; their conditions need not be identical. Equal entries are not always repeated.

target: T1, N-terminal 6His-tagged ROCK2 catalytic domain 11-552 (Homo sapiens, UniProt O75116); assay: ROCK2 binding activity: ROCK2 inhibition, ADP-Glo Kinase Assay; assay type: biochemical; conditions: 1.25 nM ROCK2, 100 μM long S6 peptide, 20 μM ATP; 1 hour pre-incubation; read-out: ADP-Glo kinase activity assay ROCK2 Category
T1 construct: N-terminal 6His-tagged ROCK2 catalytic domain 11-552; 6His (N); purchased Dundee University, UK; host or cells: baculovirus expression system
T1 sequence (O75116 11-552): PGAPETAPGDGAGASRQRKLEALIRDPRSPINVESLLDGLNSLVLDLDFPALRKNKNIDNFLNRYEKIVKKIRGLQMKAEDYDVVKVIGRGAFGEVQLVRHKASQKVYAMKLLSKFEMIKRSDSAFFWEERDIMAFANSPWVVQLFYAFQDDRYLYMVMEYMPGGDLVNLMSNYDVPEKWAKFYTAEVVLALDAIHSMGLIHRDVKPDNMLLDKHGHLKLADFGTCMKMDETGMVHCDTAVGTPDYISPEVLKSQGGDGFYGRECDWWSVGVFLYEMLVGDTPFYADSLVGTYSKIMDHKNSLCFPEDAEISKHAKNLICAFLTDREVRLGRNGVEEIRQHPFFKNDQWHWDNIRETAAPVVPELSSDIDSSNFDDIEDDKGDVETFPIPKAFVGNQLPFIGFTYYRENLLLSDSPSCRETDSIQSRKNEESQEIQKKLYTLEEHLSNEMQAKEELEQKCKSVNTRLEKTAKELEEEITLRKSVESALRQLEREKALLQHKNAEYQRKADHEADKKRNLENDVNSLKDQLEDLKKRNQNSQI
Method: Assay for ROCK2 inhibition was performed using the protein construct N-terminal 6His-tagged ROCK2 catalytic domain 11-552 (Dundee University, UK). Protein was purified from a baculovirus expression system. Long S6 peptide ([…]) was used as substrate. Kinase reactions were carried out in 15 μl volume in a 96-well plate (black, half area) using 1.25 nM constitutively active ROCK2 kinase, 100 μM long S6 peptide, 20 μM ATP and test compound in DMSO (or DMSO only for controls). The final concentration of DMSO was 1%. Assay buffer was 50 mM HEPES pH 7.5 supplemented with 0.2 mM EDTA, 10 mM magnesium acetate, 0.01% Tween-20, 1 mM DTT and 0.01% BSA. Test compounds were pre-incubated with ROCK2 kinase for 1 hour before addition of ATP and long S6 peptide. After incubation for a further 1 hour, the amount of ADP produced was measured using ADP-Glo Kinase Assay (Promega) as per manufacturer's instructions. The luminescence was measured on a PHERAstar FS (BMG Labtech). The concentration of test compound required to inhibit ADP production by 50% (the IC50) was calculated using a four-parameter logistic function with software by Dotmatics.
The category “+” refers to compounds with a ROCK2 IC50 value of >10 μM. The category “++” refers to compounds with a ROCK2 IC50 value of 10 to 3 μM. The category “+++” refers to compounds with a ROCK2 IC50 value of 3 to 0.3 μM. The category “++++” refers to compounds with a ROCK2 IC50 value of <0.3 μM.

COc1cc(-c2nc(Nc3ccc4[nH]ncc4c3Cl)n(-c3ccccn3)n2)ccc1C(=O)NCC(F)(F)F [Example 153] and COc1cc(-c2nc(Nc3ccc4[nH]ncc4c3Cl)n(C)n2)ccc1C(=O)NCC(F)(F)F [Example 201] cannot be ordered by pIC50: > 6.52 for the first, > 6.52 for the second.

O=C(COc1ccc(-c2nnc(Nc3ccc4[nH]ncc4c3)[nH]2)cc1)N1CCOCC1 [Example 154, 2-[4-[5-(1H-Indazol-5-ylamino)-4H-1,2,4-triazol-3-yl]phenoxy]-1-morpholinoethanone] and O=C(COc1ccc(-c2nnc(Nc3ccc4[nH]ncc4c3)[nH]2)cc1)NC1CCOC1 (stereo not shown) [Example 159] fall in the same range of pIC50: 5.52 to 6.52 for the first, 5.52 to 6.52 for the second.

First: COCCNC(=O)COc1ccc(-c2nnc(Nc3ccc4[nH]ncc4c3)[nH]2)cc1 [Example 155]
Second: O=C(COc1ccc(-c2nnc(Nc3ccc4[nH]ncc4c3)[nH]2)cc1)NC1CC1 [Example 162]
The pIC50 of the first is lower: 5.52 to 6.52 for the first, > 6.52 for the second. The second is the more potent here.

O=C(COc1ccc(-c2nnc(Nc3ccc4[nH]ncc4c3)[nH]2)cc1)NC1CCNC1 (stereo not shown) [Example 156] and O=C(COc1ccc(-c2nnc(Nc3ccc4[nH]ncc4c3)[nH]2)cc1)N[C@@H]1CCNC1 [Example 157] cannot be ordered by pIC50: > 6.52 for the first, > 6.52 for the second.

O=C(COc1ccc(-c2nnc(Nc3ccc4[nH]ncc4c3)[nH]2)cc1)N[C@H]1CCNC1 [Example 158] and O=C(COc1ccc(-c2nnc(Nc3ccc4[nH]ncc4c3)[nH]2)cc1)NC1CCC1 [Example 161] cannot be ordered by pIC50: > 6.52 for the first, > 6.52 for the second.

O=C(COc1ccc(-c2nnc(Nc3ccc4[nH]ncc4c3)[nH]2)cc1)NC1CCCC1 [Example 160] and O=C(COc1ccc(-c2nnc(Nc3ccc4[nH]ncc4c3)[nH]2)cc1)NC1COC1 [Example 164] cannot be ordered by pIC50: > 6.52 for the first, > 6.52 for the second.

First: CN1CCC(NC(=O)COc2ccc(-c3nnc(Nc4ccc5[nH]ncc5c4)[nH]3)cc2)C1 (stereo not shown) [Example 163]
Second: COc1cc(-c2nnc(Nc3ccc4[nH]ncc4c3)[nH]2)ccc1OCC(=O)NC1CCC1 [Example 165]
The pIC50 of the first is lower: 5.52 to 6.52 for the first, > 6.52 for the second.

CC(C)NC(=O)c1ccc(-c2nc(Nc3ccc4[nH]ncc4c3Cl)n(C)n2)cc1 [Example 166, 4-[5-[(4-chloro-1H-indazol-5-yl)amino]-1-methyl-1,2,4-triazol-3-yl]-N-isopropyl-benzamide] and Cn1nc(-c2ccc(C(=O)NC3CC3)cc2)nc1Nc1ccc2[nH]ncc2c1Cl [Example 177] cannot be ordered by pIC50: > 6.52 for the first, > 6.52 for the second.

COc1cc(-c2nc(Nc3ccc4[nH]ncc4c3)n(C)n2)ccc1OCC(=O)NC(C)C [Example 167] and COc1cc(-c2nc(Nc3ccc4[nH]ncc4c3)n(C)n2)ccc1C(=O)NC(C)C [Example 169] cannot be ordered by pIC50: > 6.52 for the first, > 6.52 for the second.

CCNC(=O)c1ccc(-c2nc(Nc3ccc4[nH]ncc4c3)n(C)n2)cc1OC [Example 168] and COc1cc(-c2nc(Nc3ccc4[nH]ncc4c3)n(C)n2)ccc1C(=O)NC(C)(C)C [Example 170] cannot be ordered by pIC50: > 6.52 for the first, > 6.52 for the second.

Cn1nc(-c2ccc(C(=O)NCC(F)(F)F)cc2)nc1Nc1ccc2[nH]ncc2c1Cl [Example 171] and Cn1nc(-c2ccc(C(=O)NC3CCC3)cc2)nc1Nc1ccc2[nH]ncc2c1Cl [Example 176] cannot be ordered by pIC50: > 6.52 for the first, > 6.52 for the second.

COc1cc(-c2nc(Nc3ccc4[nH]ncc4c3Cl)n(C)n2)ccc1C(=O)N1CCOCC1 [Example 172] and COc1cc(-c2nc(Nc3ccc4[nH]ncc4c3Cl)n(C)n2)ccc1C(=O)N1CCCC1 [Example 197] fall in the same range of pIC50: 5.52 to 6.52 for the first, 5.52 to 6.52 for the second.

Compared with COc1cc(-c2nc(Nc3ccc4[nH]ncc4c3Cl)n(C)n2)ccc1C(=O)N1CC(CO)(CO)C1 [Example 173], COc1cc(-c2nc(Nc3ccc4[nH]ncc4c3Cl)n(C)n2)ccc1C(=O)NC1(CO)CC1 [Example 198] is higher in pIC50: 5.00 to 5.52 for the first, > 6.52 for the second.

CNC(=O)c1ccc(-c2nc(Nc3ccc4[nH]ncc4c3Cl)n(C)n2)cc1OC [Example 174] and COc1cc(-c2nc(Nc3ccc4[nH]ncc4c3Cl)n(C)n2)ccc1C(=O)NC(C)C [Example 193, 4-[5-[(4-chloro-1H-indazol-5-yl)amino]-1-methyl-1,2,4-triazol-3-yl]-N-isopropyl-2-methoxy-benzamide] cannot be ordered by pIC50: > 6.52 for the first, > 6.52 for the second.

COc1cc(-c2nc(Nc3ccc4[nH]ncc4c3Cl)n(C)n2)ccc1C(=O)NC(C)(C)C [Example 175] and COc1cc(-c2nc(Nc3ccc4[nH]ncc4c3C)n(C)n2)ccc1C(=O)NC(C)(C)C [Example 181] cannot be ordered by pIC50: > 6.52 for the first, > 6.52 for the second.

COc1cc(-c2nc(Nc3ccc4[nH]ncc4c3C)n(C)n2)ccc1C(=O)NCC(F)(F)F [Example 178] and CCNC(=O)c1ccc(-c2nc(Nc3ccc4[nH]ncc4c3C)n(C)n2)cc1OC [Example 180] cannot be ordered by pIC50: > 6.52 for the first, > 6.52 for the second.

COc1cc(-c2nc(Nc3ccc4[nH]ncc4c3C)n(C)n2)ccc1C(=O)NC(C)C [Example 179] and COc1cc(-c2nc(Nc3ccc4[nH]ncc4c3F)n(C)n2)ccc1C(=O)NC(C)C [Example 183] cannot be ordered by pIC50: > 6.52 for the first, > 6.52 for the second.

COc1cc(-c2nc(Nc3ccc4[nH]ncc4c3C)n(C)n2)ccc1C(=O)NC1CC1 [Example 182] and COc1cc(-c2nc(Nc3ccc4[nH]ncc4c3Cl)n(C)n2)ccc1C(=O)NC1CC1 [Example 195] cannot be ordered by pIC50: > 6.52 for the first, > 6.52 for the second.

COc1cc(-c2nc(Nc3ccc4[nH]ncc4c3Cl)n(C(C)C)n2)ccc1C(=O)NC(C)C [Example 191] and COc1cc(-c2nc(Nc3ccc4[nH]ncc4c3Cl)n(C(C)C)n2)ccc1C(=O)NCC(F)(F)F [Example 192] cannot be ordered by pIC50: > 6.52 for the first, > 6.52 for the second.

COc1cc(-c2nc(Nc3ccc4[nH]ncc4c3Cl)n(C)n2)ccc1C(=O)NC1CCOCC1 [Example 196] and COc1cc(-c2nc(Nc3ccc4[nH]ncc4c3Cl)n(C)n2)ccc1C(=O)NC1CCN(C)C1 (stereo not shown) [Example 202] cannot be ordered by pIC50: > 6.52 for the first, > 6.52 for the second.

First: COc1cc(-c2nc(Nc3ccc4[nH]ncc4c3Cl)n(C)n2)ccc1C(=O)NC#N [Example 199]
Second: COc1cc(-c2nc(Nc3ccc4[nH]ncc4c3Cl)n(C)n2)ccc1C(N)=O [Example 203]
The pIC50 of the first is lower: 5.52 to 6.52 for the first, > 6.52 for the second.

COc1cc(-c2nc(Nc3ccc4[nH]ncc4c3Cl)n(C)n2)ccc1C(=O)NC1CCS(=O)(=O)C1 (stereo not shown) [Example 200] and COc1cc(-c2nc(Nc3ccc4[nH]ncc4c3Cl)n(C)n2)ccc1OCC(=O)NCC1(O)CC1 [Example 209] cannot be ordered by pIC50: > 6.52 for the first, > 6.52 for the second.

COc1cc(-c2nc(Nc3ccc4[nH]ncc4c3Cl)n(C)n2)ccc1OCC(=O)NC(C)(C)C [Example 204, N-tert-butyl-2-[4-[5-[(4-chloro-1H-indazol-5-yl)amino]-1-methyl-1,2,4-triazol-3-yl]-2-methoxy-phenoxy]acetamide] and COc1cc(-c2nc(Nc3ccc4[nH]ncc4c3Cl)n(C)n2)ccc1OCC(=O)NC(C)(C)CO [Example 205] cannot be ordered by pIC50: > 6.52 for the first, > 6.52 for the second.

COc1cc(-c2nc(Nc3ccc4[nH]ncc4c3Cl)n(C)n2)ccc1OCC(=O)NCC(C)O (stereo not shown) [Example 206] and COc1cc(-c2nc(Nc3ccc4[nH]ncc4c3Cl)n(C)n2)ccc1OCC(=O)NC(C)CO (stereo not shown) [Example 208] cannot be ordered by pIC50: > 6.52 for the first, > 6.52 for the second.

COc1cc(-c2nc(Nc3ccc4[nH]ncc4c3Cl)n(C)n2)ccc1OCC(=O)NCC(C)(C)O [Example 207] and COc1cc(-c2nc(Nc3ccc4[nH]ncc4c3Cl)n(C)n2)ccc1OCC(=O)NC1(CO)CC1 [Example 211] cannot be ordered by pIC50: > 6.52 for the first, > 6.52 for the second.

With COc1cc(-c2nc(Nc3ccc4[nH]ncc4c3Cl)n(C)n2)ccc1OCC(=O)NC(C)C(F)(F)F (stereo not shown) [Example 210] the pIC50 was > 6.52.

In the case of COc1cc(-c2nc(Nc3ccc4[nH]ncc4c3F)n(C)n2)ccc1C(=O)NCC(F)(F)F [Example 184], the pIC50 was 5.52 to 6.52 and > 6.52.
